≈ marks a conversion by molar mass, not a printed value. Read-outs that look alike come from different tables or passages of the source.
Key:
Type in all cases: cell-based
Strep. 2733-B = assay: Human bacteria MIC, nutrient agar with chocolated horse blood (Table 3)
Procedure: (§1) The values were determined by serial dilutions in nutrient agar with 5% chocolated horse blood after incubations for 18 hours at 37° C.

[1] = tested on: Haemophilus influenzae Wy21; assay: as above; settings: nutrient agar 5% chocolated horse blood, 18 hours 37° C.
Procedure: as §1

[2] = tested on: Treponema hyodysenteriae S77/10; assay: MIC against Treponema hyodysenteriae, horse blood agar (Table 4); settings: Brachyspira hyodysenteriae, 48 h; strain S77/10; 2 days 37° C. anaerobic; read-out: Minimum Inhibitory Concentration (MIC), inhibition of β-haemolysis
Procedure: (§2) The value were obtained by the following method: The compound was incorporated in horse blood agar, inoculated (multi-point)with 0.001 ml of a 3 day growth of the test organism from base of a blood slope (+1 ml foetal calf serum) and incubated at 37° C. for 2 days under anaerobic conditions. The MIC was taken as the lowest concentration to inhibit β-haemolysis.

[3] = tested on: Treponema hyodysenteriae Navis; assay: as above; settings: Brachyspira hyodysenteriae, 48 h; strain Navis; 2 days 37° C. anaerobic; read-out: Minimum Inhibitory Concentration (MIC), inhibition of β-haemolysis
Procedure: as §2

[4] = tested on: Treponema hyodysenteriae B10; assay: as above; settings: Brachyspira hyodysenteriae, 48 h; strain B10; 2 days 37° C. anaerobic; read-out: Minimum Inhibitory Concentration (MIC), inhibition of β-haemolysis
Procedure: as §2

[5] = tested on: Treponema hyodysenteriae S77/2; assay: as above; settings: Brachyspira hyodysenteriae, 48 h; strain S77/2; 2 days 37° C. anaerobic; read-out: Minimum Inhibitory Concentration (MIC), inhibition of β-haemolysis
Procedure: as §2

[6] = tested on: Treponema hyodysenteriae P23; assay: as above; settings: Brachyspira hyodysenteriae, 48 h; strain P23; 2 days 37° C. anaerobic; read-out: Minimum Inhibitory Concentration (MIC), inhibition of β-haemolysis
Procedure: as §2

bacteria = assay: Antibacterial activity (summary); settings: in words
Procedure: The values were determined using a two fold serial dilutions in Diagnostic Sensitivity Test Agar with an inoculum of 10^4 organisms and incubation for 18 hours at 37° C.
as §1

M1 -suiphneumoniae = assay: Anti-mycoplasmal activity relative to O-nitrobenzyl monate A
mycoplasma organisms = assay: Anti-mycoplasmal activity (summary); settings: in words
Procedure: The values were determines in Friis broth solidified with 0.9% agarose. The inoculum was 10^3 to 10^5 C.F.U. and the MIC's were recorded after 6 days incubation at 37° C.

[7] = Strep. 2733-B, nutrient agar 5% chocolated horse blood, 18 hours 37° C., read-out: MIC

Compound	MIC (Strep. 2733-B; 18 h) [µg/mL]	MIC [1] [µg/mL]	MIC (Strep. 2733-B; [7]) [µg/mL]	further results
C/C(=C\C(=O)OCc1ccc([N+](=O)[O-])cc1[N+](=O)[O-])CC1OCC(CC2OC2C(C)C(C)O)C(O)C1O (centres unmarked) [Example 10, 2,4-dinitrobenzyl monate A]	2.5 (≈ 4.77 µM)	0.5 (≈ 0.953 µM)	–	–
C/C(=C\C(=O)OC(C)c1ccc([N+](=O)[O-])cc1)CC1OCC(CC2OC2C(C)C(C)O)C(O)C1O (centres unmarked) [Example 4, 1-(p-nitrophenyl)ethyl monate A]	–	–	1 (≈ 2.03 µM)	–
C/C(=C\C(=O)OCc1ccc([N+](=O)[O-])cc1)CC1OCC(CC2OC2C(C)C(C)O)C(O)C1O (centres unmarked) [Example 1, p-nitrobenzyl monate A]	–	–	–	MIC [2]: 2.5 µg/mL (≈ 5.21 µM); MIC [3]: 2.5 µg/mL (≈ 5.21 µM); MIC [4]: 2.5 µg/mL (≈ 5.21 µM); MIC [5]: 2.5 µg/mL (≈ 5.21 µM); MIC [6]: 2.5 µg/mL (≈ 5.21 µM); antibacterial activity as compared to o-nitrobenzyl monate A (bacteria): outstanding antibacterial activity
C/C(=C\C(=O)OCc1ccc([N+](=O)[O-])c([N+](=O)[O-])c1)CC1OCC(CC2OC2C(C)C(C)O)C(O)C1O (centres unmarked) [Example 9, 3,4-dinitrobenzyl monate A]	2.5 (≈ 4.77 µM)	0.25 (≈ 0.477 µM)	–	–
C/C(=C\C(=O)OCc1cc([N+](=O)[O-])cc([N+](=O)[O-])c1)CC1OCC(CC2OC2C(C)C(C)O)C(O)C1O (centres unmarked) [Example 6, 3,5-dinitrobenzyl monate A]	0.5 (≈ 0.953 µM)	0.5 (≈ 0.953 µM)	–	–
C/C(=C\C(=O)OCc1cc([N+](=O)[O-])cc([N+](=O)[O-])c1C)CC1OCC(CC2OC2C(C)C(C)O)C(O)C1O (centres unmarked) [Example 7, 3,5-dinitro-2-methylbenzyl monate A]	2.5 (≈ 4.64 µM)	1 (≈ 1.86 µM)	–	–
C/C(=C\C(=O)OCc1cccc([N+](=O)[O-])c1)CC1OCC(CC2OC2C(C)C(C)O)C(O)C1O (centres unmarked) [Example 2, m-nitrobenzyl monate A]	–	–	10 (≈ 20.9 µM)	times more active than O-nitrobenzyl monate A (M1 -suiphneumoniae): approximately 20 times; anti-mycoplasmal activity (mycoplasma organisms): outstanding anti-mycoplasmal activity
C/C(=C\C(=O)OCc1ccc([N+](=O)[O-])cc1Cl)CC1OCC(CC2OC2C(C)C(C)O)C(O)C1O (centres unmarked) [Example 11, 2-chloro-4-nitrobenzyl monate A]	–	–	1 (≈ 1.95 µM)	–
C/C(=C\C(=O)OCc1ccccc1[N+](=O)[O-])CC1OCC(CC2OC2C(C)C(C)O)C(O)C1O (centres unmarked) [C, O--nitrobenzyl monate A, reference compound]	2.5 (≈ 5.21 µM)	–	–	–

Source: patent US4436751A, “Nitrobenzyl monates antibacterial compounds” (Beecham Group Limited, priority 1980, dated 1984)
